Laboratory results reported in patent US9340819B2, “Method for detecting the presence of carbapenemase-producing bacteria in a sample” (priority 2011, dated 2016).
In brackets after ≈: the same amount, converted by molar mass.

Key:
P. stuartii = experiment: MIC of carbapenem by Etest (Example 2); format: cell-based, Providencia stuartii; details: P. stuartii NDM-1, n=1
Procedure: (§1) All strains had previously been characterized for their β-lactamase content at the molecular level. Minimum inhibitory concentration of carbapenem were determined using the Etest® (AB bioMérieux, Solna, Sweden) and results were recorded according to US guidelines (CLSI), as updated in 2011.

E. aerogenes = experiment: MIC of carbapenem by Etest (Example 2); format: cell-based, Enterobacter aerogenes
Procedure: as §1

P. rettgeri = experiment: MIC of carbapenem by Etest (Example 2); format: cell-based, Proteus rettgeri
Procedure: as §1

K. pneumoniae = experiment: MIC of carbapenem by Etest (Example 2); format: cell-based, Klebsiella pneumoniae
Procedure: as §1

M. morganii = experiment: MIC of carbapenem by Etest (Example 2); format: cell-based, Morganella morganii; details: Plasmid mediated AmpC or chromosomal AmpC + decreased membrane permeability; M. morganii Overexpressed cephalosporinase, n=2
Procedure: as §1

E. coli = experiment: MIC of carbapenem by Etest (Example 2); format: cell-based, Escherichia coli
Procedure: as §1

E. sakazaki = experiment: MIC of carbapenem by Etest (Example 2); format: cell-based; details: ESBL + decreased membrane permeability; E. sakazaki CTX-M-15, n=1
Procedure: as §1

Salmonella spp. = experiment: MIC of carbapenem by Etest (Example 2); format: cell-based; details: Salmonella spp. KPC-2, n=1
Procedure: as §1

K. ozonae = experiment: MIC of carbapenem by Etest (Example 2); format: cell-based; details: K. ozonae KPC-3, n=1
Procedure: as §1

P. mirabilis = experiment: MIC of carbapenem by Etest (Example 2); format: cell-based, Proteus mirabilis; details: Plasmid mediated AmpC or chromosomal AmpC + decreased membrane permeability; P. mirabilis ACC-1, n=1
Procedure: as §1

S. marcescens = experiment: MIC of carbapenem by Etest (Example 2); format: cell-based, Serratia marcescens
Procedure: as §1

P. putida = experiment: Susceptibility testing by Etest on Mueller-Hinton agar (Example 3); format: cell-based; details: Pseudomonas putida
Procedure: (§2) Susceptibility testing was performed using the Etest® (bioMérieux; La Balmes-les-Grottes, France) on Mueller-Hinton agar plates (Becton Dickinson, Le Pont de Chaix, France) at 37° C. and results were recorded according to US guidelines (CLSI), as updated in 2012. The breakpoints for imipenem, meropenem and doripenem are as follows; susceptibility (S)≦2, and resistance (R)≧8 μg/ml.

P. fluorescens = experiment: as above; format: cell-based; details: Pseudomonas fluorescens
Procedure: as §2

P. stutzeri = experiment: as above; format: cell-based; details: Stutzerimonas stutzeri
Procedure: as §2

E. cloacae = experiment: MIC of carbapenem by Etest (Example 2); format: cell-based, Enterobacter cloacae
Procedure: as §1

E. asburiae = experiment: MIC of carbapenem by Etest (Example 2); format: cell-based, Enterobacter asburiae; details: E. asburiae IMI-2, n=1
Procedure: as §1

C. freundii = experiment: MIC of carbapenem by Etest (Example 2); format: cell-based, Citrobacter freundii
Procedure: as §1

Q: `C[C@@H](O)[C@H]1C(=O)N2C(C(=O)O)=C(S[C@@H]3CN[C@H](C(=O)N(C)C)C3)[C@H](C)[C@H]12` [MER, meropenem] was tested. Which MICs range (P. stuartii) did it give?
A: The MICs range was 1.5 mg/L.

Q: What about the MICs range (E. aerogenes; E. aerogenes KPC-2, n=1) of the same compound?
A: Its MICs range is 8 mg/L.

Q: And the MICs range (E. aerogenes; Plasmid mediated AmpC or chromosomal AmpC + decreased membrane permeability, E. aerogenes Overexpressed cephalosporinase, n=1)?
A: The MICs range was 0.75 mg/L.

Q: And the MICs range (P. rettgeri; P. rettgeri NDM-1, n=1)?
A: The MICs range was 1.5 mg/L.

Q: What about the MICs range (P. rettgeri; P. rettgeri OXA-181, n=1) of the same compound?
A: Its MICs range is 2 mg/L.

Q: What about the MICs range (K. pneumoniae; ESBL + decreased membrane permeability, K. pneumoniae SHV-2a, n=1) of the same compound?
A: Its MICs range is 0.38 mg/L.

Q: And the MICs range (K. pneumoniae; ESBL + decreased membrane permeability, K. pneumoniae SHV-28, n=1)?
A: The MICs range was 1 mg/L.

Q: What about the MICs range (K. pneumoniae; ESBLs, K. pneumoniae CTX-M-3, n=1) of the same compound?
A: Its MICs range is 0.12 mg/L.

Q: And the MICs range (K. pneumoniae; ESBLs, K. pneumoniae CTX-M-14, n=1)?
A: Its MICs range is 0.12 mg/L.

Q: What about the MICs range (K. pneumoniae; ESBLs, K. pneumoniae CTX-M-15, n=3) of the same compound?
A: The MICs range was 0.12 mg/L.

Q: And the MICs range (K. pneumoniae; K. pneumoniae IMP-1, n=5)?
A: The MICs range was 1 to 8 mg/L.

Q: What about the MICs range (K. pneumoniae; K. pneumoniae IMP-8, n=2) of the same compound?
A: Its MICs range is 0.5 mg/L.

Q: And the MICs range (K. pneumoniae; K. pneumoniae KPC-3, n=3)?
A: Its MICs range is 1 to 8 mg/L.

Q: And the MICs range (K. pneumoniae; K. pneumoniae NDM-4, n=1)?
A: Its MICs range is >32 mg/L.

Q: What about the MICs range (K. pneumoniae; K. pneumoniae OXA-181, n=2) of the same compound?
A: Its MICs range is 0.5 to 1 mg/L.

Q: And the MICs range (K. pneumoniae; K. pneumoniae VIM-19, n=1)?
A: Its MICs range is 4 mg/L.

Q: What about the MICs range (K. pneumoniae; Plasmid mediated AmpC or chromosomal AmpC + decreased membrane permeability, K. pneumoniae DHA-1, n=1) of the same compound?
A: The MICs range was >32 mg/L.

Q: And the MICs range (K. pneumoniae; Plasmid mediated AmpC or chromosomal AmpC + decreased membrane permeability, K. pneumoniae DHA-2, n=1)?
A: The MICs range was 0.12 mg/L.

Q: And the MICs range (M. morganii)?
A: The MICs range was 0.5 mg/L.

Q: And the MICs range (E. coli; E. coli IMP-1, n=2)?
A: Its MICs range is 0.5 to 1 mg/L.

Q: What about the MICs range (E. coli; E. coli IMP-8, n=1) of the same compound?
A: The MICs range was 3 mg/L.

Q: And the MICs range (E. coli; E. coli KPC-2, n=5)?
A: Its MICs range is 0.5 to 2 mg/L.

Q: And the MICs range (E. coli; E. coli NDM-1, n=7)?
A: Its MICs range is 1 to 16 mg/L.

Q: And the MICs range (E. coli; E. coli OXA-48, n=6)?
A: The MICs range was 0.12 to 1 mg/L.

Q: And the MICs range (E. coli; E. coli VIM-1, n=2)?
A: Its MICs range is 0.5 to 1 mg/L.

Q: What about the MICs range (E. coli; E. coli VIM-2, n=2) of the same compound?
A: Its MICs range is 0.38 to 0.5 mg/L.

Q: What about the MICs range (E. coli; E. coli VIM-19, n=1) of the same compound?
A: Its MICs range is 4 mg/L.

Q: And the MICs range (E. coli; ESBLs, E. coli CTX-M-1, n=1)?
A: The MICs range was 0.12 mg/L.

Q: What about the MICs range (E. coli; ESBLs, E. coli CTX-M-3, n=1) of the same compound?
A: Its MICs range is 0.12 mg/L.

Q: And the MICs range (E. coli; ESBLs, E. coli CTX-M-14, n=2)?
A: Its MICs range is 0.12 mg/L.

Q: What about the MICs range (E. coli; ESBLs, E. coli CTX-M-15, n=2) of the same compound?
A: The MICs range was 0.12 mg/L.

Q: What about the MICs range (E. coli; ESBLs, E. coli VEB-1, n=1) of the same compound?
A: Its MICs range is 0.12 mg/L.

Q: What about the MICs range (E. coli; Plasmid mediated AmpC or chromosomal AmpC + decreased membrane permeability, E. coli ACC-1, n=1) of the same compound?
A: The MICs range was 0.12 mg/L.

Q: What about the MICs range (E. coli; Plasmid mediated AmpC or chromosomal AmpC + decreased membrane permeability, E. coli CMY-2, n=1) of the same compound?
A: The MICs range was 0.12 mg/L.

Q: And the MICs range (E. coli; Plasmid mediated AmpC or chromosomal AmpC + decreased membrane permeability, E. coli CMY-10, n=1)?
A: Its MICs range is 0.12 mg/L.

Q: And the MICs range (E. coli; Plasmid mediated AmpC or chromosomal AmpC + decreased membrane permeability, E. coli DHA-1, n=1)?
A: The MICs range was 0.12 mg/L.

Q: And the MICs range (E. coli; Plasmid mediated AmpC or chromosomal AmpC + decreased membrane permeability, E. coli Extended spectrum cephalosporinase, n=1)?
A: Its MICs range is 0.12 mg/L.

Q: And the MICs range (E. coli; Plasmid mediated AmpC or chromosomal AmpC + decreased membrane permeability, E. coli Overexpressed cephalosporinase, n=1)?
A: The MICs range was 2 mg/L.

Q: And the MICs range (E. sakazaki)?
A: The MICs range was 0.25 mg/L.

Q: And the MICs range (Salmonella spp.)?
A: The MICs range was 0.25 mg/L.

Q: What about the MICs range (K. ozonae) of the same compound?
A: The MICs range was 2 mg/L.

Q: What about the MICs range (P. mirabilis) of the same compound?
A: Its MICs range is 0.12 mg/L.

Q: What about the MICs range (S. marcescens; S. marcescens IMP-11, n=1) of the same compound?
A: The MICs range was 2 mg/L.

Q: And the MICs range (S. marcescens; S. marcescens KPC-2, n=2)?
A: The MICs range was >32 mg/L.

Q: And the MICs range (S. marcescens; S. marcescens SME-1, n=1)?
A: Its MICs range is 12 mg/L.

Q: And the MICs range (S. marcescens; S. marcescens SME-2, n=1)?
A: Its MICs range is 12 mg/L.

Q: And the MICs range (S. marcescens; S. marcescens VIM-2, n=1)?
A: The MICs range was >32 mg/L.

Q: And the MIC (P. putida; CIP55, P. putida CIP 55-5, wild type, none)?
A: The MIC was 3 ng/mL (≈ 0.00782 µM).

Q: And the MIC (P. putida; P. putida 9335, VIM-2)?
A: Its MIC is > 32 ng/mL.

Q: And the MIC (P. putida; P. putida NTU 91/99, VIM-2)?
A: The MIC was > 32 ng/mL.

Q: And the MIC (P. putida; P. putida NTU 92/99, IMP-1)?
A: The MIC was 0.19 ng/mL (≈ 0.000495 µM).

Q: What about the MIC (P. fluorescens; P. fluorescens COU, VIM-2) of the same compound?
A: The MIC was > 32 ng/mL.

Q: What about the MIC (P. fluorescens; P. fluorescens, BIC-1) of the same compound?
A: Its MIC is 4 ng/mL (≈ 0.0104 µM).

Q: What about the MIC (P. stutzeri; P. stutzeri 13, DIM-1) of the same compound?
A: Its MIC is > 32 ng/mL.

Q: And the MIC (P. stutzeri; P. stutzeri P511503100, VIM-2)?
A: Its MIC is > 32 ng/mL.

Q: What about the MIC (P. stutzeri; P. stutzeri PB207, IMP-1) of the same compound?
A: The MIC was 4 ng/mL (≈ 0.0104 µM).

Q: What about the MICs range (E. cloacae; E. cloacae GES-5, n=1) of the same compound?
A: Its MICs range is >32 mg/L.

Q: What about the MICs range (E. cloacae; E. cloacae IMP-8, n=2) of the same compound?
A: Its MICs range is 0.5 to 1 mg/L.

Q: And the MICs range (E. cloacae; E. cloacae KPC-2, n=7)?
A: The MICs range was 0.75 to 16 mg/L.

Q: What about the MICs range (E. cloacae; E. cloacae NDM-1, n=1) of the same compound?
A: Its MICs range is 2 mg/L.

Q: What about the MICs range (E. cloacae; E. cloacae NMC-A, n=1) of the same compound?
A: The MICs range was 16 mg/L.

Q: And the MICs range (E. cloacae; E. cloacae OXA-48, n=3)?
A: The MICs range was 0.5 to 1.5 mg/L.

Q: What about the MICs range (E. cloacae; ESBLs, E. cloacae CTX-M-15, n=3) of the same compound?
A: Its MICs range is 0.12 mg/L.

Q: What about the MICs range (E. cloacae; ESBLs, E. cloacae VEB-1, n=1) of the same compound?
A: Its MICs range is 0.12 mg/L.

Q: And the MICs range (E. asburiae)?
A: Its MICs range is >32 mg/L.

Q: And the MICs range (C. freundii; C. freundii KPC-2, n=2)?
A: Its MICs range is 1.5 to 3 mg/L.

Q: And the MICs range (C. freundii; C. freundii NDM-1, n=1)?
A: Its MICs range is >32 mg/L.

Q: What about the MICs range (C. freundii; ESBL + decreased membrane permeability, C. freundii TEM-3, n=1) of the same compound?
A: The MICs range was 1 mg/L.
